{"source": "patent US20180015111A1", "about": "“METHODS FOR ON DEMAND PRE-EXPOSURE PROPHYLACTIC TREATMENT OF HIV INFECTION” (INSERM (INSTITUT NATIONAL DE LA SANTE ET DE LA RECHERCHE …, priority 2015, published 2018)", "experiment": "Drug levels in plasma by LC-MS/MS as measure of adherence (Example 2)", "assay_type": "in vivo, human", "settings": "TDF-FTC group, first 113 participants enrolled; limit of detection 0.1 ng/ml tenofovir, 0.4 ng/ml FTC", "procedure": "Pill count was the first measure of adherence. Participants were asked to return their study-drug bottles at each visit, and a pill count of unused medication was performed. We also measured drug levels in plasma in the first participants who were enrolled. Plasma was tested for the presence of tenofovir and FTC with the use of a validated liquid chromatography-tandem mass spectrometry method with a limit of detection of 0.1 ng per milliliter for tenofovir and 0.4 ng per milliliter for FTC. This plasma assay was able to detect drugs up to 9 days after intake."}
{"smiles": "Nc1nc(=O)n([C@@H]2CS[C@H](CO)O2)cc1F", "note": "[FTC, 4-amino-5-fluoro-1-[(2R,5S)-2-(hydroxymethyl)-1,3-oxathiolan-5-yl]-1,2-dihydropyrimidin-2-one]", "values": [{"measurement": "rate of detection in plasma", "result": 82, "unit": "%"}]}
{"smiles": "C[C@H](Cn1cnc2c(N)ncnc21)OCP(=O)(O)O", "note": "[tenofovir, ({[(2R)-1-(6-amino-9H-purin-9-yl)propan-2-yl]oxy}methyl)phosphonic acid]", "values": [{"measurement": "rate of detection in plasma", "result": 86, "unit": "%"}]}
